# Like-named read-outs stand apart in the source and are kept apart here.
# Columns and labels:
# [1] = Microsomal stability, mouse (MLM); format: in vitro ADME; conditions: for microsomal CLint / half-life: liver microsomes; for half-life: read-out: t½; for ER / CLh: mouse microsomes; for CLh: in mL/min/kg (unit assumed)
# [2] = Pharmacokinetic (PK) assessment in rats; format: in vivo; conditions: for MRT last: read-out: MRTlast; for half-life: read-out: T ½ (converted)
# PAK1 = PAK1 (Homo sapiens, UniProt Q13153); assay: PAK1 IC50 determination, Z'-LYTE kinase assay; format: biochemical; conditions: [ATP]=10×Km; [PAK1]=1 ng; read-out: IC50 against PAK1
# Procedure: Protocol for determining IC50 Values for test compounds at [ATP]=10×Km; [PAK1]=1 ng
# Add 2 ml 5× Kinase Buffer to 8 ml water to prepare […] of Kinase Buffer A.
# • Thaw the concentrated stock of test compound at room temperature. • 2.1. Add 10 μl of 100% DMSO to row A, columns 2-11 (wells A2-A11) in a 96-well assay plate (non-binding surface). To well A1, add 15 μl of the concentrated stock of test compound. This will be the highest concentration of test compound in a 10-point titration curve. Use a concentration that is 100× the final desired 1× concentration per 10 μl kinase reaction. For example, if the final 1× concentration of 100 μM is desired for the highest concentration of test compound in the 10 point titration curve, add 15 μl of 10 mM test compound to well A1. • 2.2. Titrate the 100× test compound three-fold across the assay plate from well A1 to well A10. To perform this threefold titration, transfer 5 μl of the 100× test compound from well A1 to the 10 μl of 100% DMSO in well A2. Repeat for wells A2-A10. Discard the final 5 μl from well A10 so that all wells contain 10 μl. […] This completes the 10-point three-fold titration of test compound at 100× concentration. • 2.3. Transfer a 2 μl aliquot of the 100× test compound titration series from each well in row A of the 96-well assay plate (wells A1-A12) to row B (wells B1-B12). Add 48 μl of complete kinase reaction buffer to each well in row B to dilute the 100× three-fold titration series of test compound to 4× (the DMSO will also be diluted, to 4%). • 2.4. Transfer 2.5 μl of the 4× concentrated three-fold titration series of test compound from row B of the 96-well assay plates to quadruplicate wells of a 384-well assay plate. Each well in columns 21-24 should contain 2.5 μl of 4% DMSO (no compound) in complete kinase reaction buffer. This 2.5 μl addition of 4× test compound in 4% DMSO produces a 1× concentration of test compound in 1% DMSO for a 10 μl kinase reaction. • 2.5. Dispense 2.5 μl of complete kinase reaction buffer to each well in columns 23-24 of the 384-well assay plate.
# • 1. Prepare 500 μl of 4 μM Z′-LYTE® Phospho-peptide by adding 2 μl of 1 mM Z′-LYTE® Phospho-peptide to 498 μl of complete kinase reaction buffer. • 2. Dispense 5 μl of the 4 μM Z′-LYTE® Phospho-peptide (2×) to each well in column 24 of the 384-well assay plate. • 3. Prepare 1000 μl of 4 μM Z′-LYTE® Peptide Substrate (2×)/2× kinase solution in complete kinase reaction buffer. If necessary, prepare an intermediate dilution of the kinase in complete kinase reaction buffer before preparing the Z′-LYTE™ Peptide Substrate (2×)/2× kinase solution. Use the appropriate 2× kinase concentration in the assay to phosphorylate 20-50% of the 0% inhibition controls at the ATP concentration desired. • 4. […]
# larger kinase panel = assay: Selectivity against a larger kinase panel; format: binding; conditions: in words
# [3] = Microsomal stability, rat (RLM); format: in vitro ADME; conditions: rat microsomes; for microsomal CLint / half-life: liver microsomes; for half-life: read-out: t½; for CLh: in mL/min/kg (unit assumed)
# [4] = system: other PAK family members (PAK2, PAK3, PAK4, PAK6, PAK7); assay: Inhibitory activity against other PAK family members; format: biochemical; conditions: in words
# Procedure: A cell-based small molecule screening with 50,024 compounds was performed based on AML cell lines that grow in a PAK1-dependent manner, which has been previously described (Pandolfi et al., 2015). This was followed by single point PAK1 enzymatic activity screening against 360 compounds. Forty-six identified compounds that scored positive in this assay were subjected to enzymatic activity assays against other PAK family kinases including PAK2, PAK3, PAK4, PAK6, and PAK7. […] Those compounds were studied in further detail and key biochemical, pharmacokinetic, and structure-activity characteristics were determined.
# [5] = Microsomal stability, human (HLM); format: in vitro ADME; conditions: human microsomes; for CLh: in mL/min/kg (unit assumed); for microsomal CLint / half-life: liver microsomes; for half-life: read-out: t½
# [6] = rat, plasma, PO, 10 mg/kg, mean
# [7] = rat, plasma, iv, 2 mg/kg, IV, 2 mg/kg, mean, read-out: AUCINF
# [8] = rat, plasma, iv, 2 mg/kg, IV, 2 mg/kg, mean, read-out: AUClast
# [9] = rat, plasma, iv, 2 mg/kg, IV, 2 mg/kg, mean, read-out: Vss
# [10] = rat, plasma, iv, 2 mg/kg, IV, 2 mg/kg, mean, read-out: Vz
# [11] = rat, plasma, po, 10 mg/kg, PO, 10 mg/kg, mean, read-out: AUClast
# Sequence of PAK1 (Q13153 whole entry): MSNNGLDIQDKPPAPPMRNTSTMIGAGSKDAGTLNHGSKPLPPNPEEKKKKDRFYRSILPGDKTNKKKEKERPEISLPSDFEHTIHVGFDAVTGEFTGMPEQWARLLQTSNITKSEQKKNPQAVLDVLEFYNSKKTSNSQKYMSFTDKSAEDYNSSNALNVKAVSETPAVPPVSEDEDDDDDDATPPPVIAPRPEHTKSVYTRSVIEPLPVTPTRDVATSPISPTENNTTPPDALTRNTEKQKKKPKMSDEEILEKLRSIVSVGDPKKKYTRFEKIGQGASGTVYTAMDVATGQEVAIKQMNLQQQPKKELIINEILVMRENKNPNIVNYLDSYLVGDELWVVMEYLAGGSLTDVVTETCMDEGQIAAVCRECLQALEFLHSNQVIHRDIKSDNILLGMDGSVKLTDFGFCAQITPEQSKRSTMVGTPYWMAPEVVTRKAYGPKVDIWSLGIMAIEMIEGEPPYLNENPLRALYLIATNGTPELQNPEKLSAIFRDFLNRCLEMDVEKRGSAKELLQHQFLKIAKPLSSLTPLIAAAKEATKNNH
smiles,measurement,setting,value
"CCC1CCCCN1c1cc(C)nc2nc(-c3ccc(C)cc3)nn12 (centres unmarked) [Compound D245-0091, 7-(2-Ethylpiperidin-1-yl)-5-methyl-2-(p-tolyl)-[1,2,4]triazolo[1,5-a]pyrimidine]",microsomal CLint,[1],243 µL/min/mg
same,half-life,[1],0.19 h
same,ER,[1],0.91
same,CLh,[1],82.27
same,K el,"[2]; IV, 2 mg/kg, mean",0.42 h⁻¹
same,"Fabs, % (from AUCINF)",[2]; PO 10 mg/kg versus IV 2 mg/kg,9.4%
same,"Fabs, % (from AUClast)",[2]; PO 10 mg/kg versus IV 2 mg/kg,9.1%
same,K el,"[2]; PO, 10 mg/kg, mean",0.37 h⁻¹
same,C0,"[2]; rat, plasma, IV, 2 mg/kg, mean",1010 ng/mL
same,Cmax,"[2]; rat, plasma, IV, 2 mg/kg, mean",740 ng/mL
same,MRT inf,"[2]; rat, plasma, IV, 2 mg/kg, mean",1.69 h
same,Tmax,"[2]; rat, plasma, IV, 2 mg/kg, mean",0.08 h
same,clearance,"[2]; rat, plasma, IV, 2 mg/kg, mean",46.8 mL/min/kg
same,MRT last,"[2]; rat, plasma, IV, 2 mg/kg, mean",1.46 h
same,half-life,"[2]; rat, plasma, IV, 2 mg/kg, mean",1.66 h
same,CL/F,[2]; [6],525 mL/min/kg
same,Cmax,[2]; [6],85.7 ng/mL
same,MRT inf,[2]; [6],3.01 h
same,Tmax,[2]; [6],1.17 h
same,MRT last,[2]; [6],2.52 h
same,half-life,[2]; [6],1.87 h
same,Vd/F,"[2]; rat, plasma, PO, 10 mg/kg, mean, read-out: Vz/F",84.8 L/kg
same,AUC(0-inf),[2]; [7],714 ng·h/mL
same,AUC(0-t),[2]; [8],695 ng·h/mL
same,Vd,[2]; [9],4.77 L/kg
same,Vd,[2]; [10],6.74 L/kg
same,AUC(0-inf),"[2]; rat, plasma, iv, 2 mg/kg, IV, dose 2 mg/kg, summary section, no unit printed there, read-out: AUCINF, IV plasma",714 ng·h/mL
same,AUC(0-t),"[2]; rat, plasma, iv, 2 mg/kg, IV, dose 2 mg/kg, summary section, no unit printed there, read-out: AUClast, IV plasma",695 ng·h/mL
same,AUC(0-inf),"[2]; rat, plasma, po, 10 mg/kg, PO, 10 mg/kg, mean, read-out: AUCINF",334 ng·h/mL
same,AUC(0-t),[2]; [11],315 ng·h/mL
same,AUC(0-inf),"[2]; rat, plasma, po, 10 mg/kg, PO, dose 10 mg/kg, summary section, no unit printed there, read-out: AUCINF, PO plasma",334 ng·h/mL
same,AUC(0-t),"[2]; rat, plasma, po, 10 mg/kg, PO, dose 10 mg/kg, summary section, no unit printed there, read-out: AUClast, PO plasma",315 ng·h/mL
same,IC50,PAK1,5000 nM
same,inhibition against a larger kinase panel,larger kinase panel,no significant inhibition
same,microsomal CLint,[3],159 µL/min/mg
same,half-life,[3],0.29 h
same,ER,[3],0.84
same,CLh,[3],46.14
same,inhibitory activity against any of the other PAK family members,[4],no significant inhibitory activity
same,ER,[5],0.83
same,CLh,[5],18.11
same,microsomal CLint,[5],114 µL/min/mg
same,half-life,[5],0.405 h
CSc1ccc(-c2nc3cccc(C)n3c2Nc2ccc3c(c2)OCCO3)cc1 [Compound C273-0489],microsomal CLint,[1],664 µL/min/mg
same,half-life,[1],0.0697 h
same,ER,[1],0.97
same,CLh,[1],87.00
same,K el,"[2]; IV, 2 mg/kg, mean",0.07 h⁻¹
same,C0,"[2]; rat, plasma, IV, 2 mg/kg, mean",71.7 ng/mL
same,Cmax,"[2]; rat, plasma, IV, 2 mg/kg, mean",53.4 ng/mL
same,MRT inf,"[2]; rat, plasma, IV, 2 mg/kg, mean",12.3 h
same,Tmax,"[2]; rat, plasma, IV, 2 mg/kg, mean",0.08 h
same,clearance,"[2]; rat, plasma, IV, 2 mg/kg, mean",214 mL/min/kg
same,MRT last,"[2]; rat, plasma, IV, 2 mg/kg, mean",6.51 h
same,half-life,"[2]; rat, plasma, IV, 2 mg/kg, mean",10.6 h
same,Cmax,[2]; [6],17.4 ng/mL
same,Tmax,[2]; [6],3.33 h
same,MRT last,[2]; [6],3.97 h
same,AUC(0-inf),[2]; [7],156 ng·h/mL
same,AUC(0-t),[2]; [8],129 ng·h/mL
same,Vd,[2]; [9],158 L/kg
same,Vd,[2]; [10],197 L/kg
same,AUC(0-t),[2]; [11],92.7 ng·h/mL
same,IC50,PAK1,470 nM
same,inhibition against a larger kinase panel,larger kinase panel,no significant inhibition
same,microsomal CLint,[3],1830 µL/min/mg
same,half-life,[3],0.0252 h
same,ER,[3],0.98
same,CLh,[3],54.10
same,inhibitory activity against any of the other PAK family members,[4],no significant inhibitory activity
same,ER,[5],0.89
same,CLh,[5],19.24
same,microsomal CLint,[5],199 µL/min/mg
same,half-life,[5],0.232 h
